Columns and labels:
[1] = target: T1, ABCD2 WT (Homo sapiens, UniProt Q9UBJ2); test: D2 correction dose-response assay: ABCD2 WT HiBit protein expression; assay type: cell-based; conditions: HEK-293/ABCD2 WT cells, 24 hours treatment, HiBit luminescence; class combines EC50 and Mean MaxAct (fold); read-out: ABCD2 WT EC50, Emax
T1 construct: expressed in transfected cells
T1 sequence (Q9UBJ2 1-740): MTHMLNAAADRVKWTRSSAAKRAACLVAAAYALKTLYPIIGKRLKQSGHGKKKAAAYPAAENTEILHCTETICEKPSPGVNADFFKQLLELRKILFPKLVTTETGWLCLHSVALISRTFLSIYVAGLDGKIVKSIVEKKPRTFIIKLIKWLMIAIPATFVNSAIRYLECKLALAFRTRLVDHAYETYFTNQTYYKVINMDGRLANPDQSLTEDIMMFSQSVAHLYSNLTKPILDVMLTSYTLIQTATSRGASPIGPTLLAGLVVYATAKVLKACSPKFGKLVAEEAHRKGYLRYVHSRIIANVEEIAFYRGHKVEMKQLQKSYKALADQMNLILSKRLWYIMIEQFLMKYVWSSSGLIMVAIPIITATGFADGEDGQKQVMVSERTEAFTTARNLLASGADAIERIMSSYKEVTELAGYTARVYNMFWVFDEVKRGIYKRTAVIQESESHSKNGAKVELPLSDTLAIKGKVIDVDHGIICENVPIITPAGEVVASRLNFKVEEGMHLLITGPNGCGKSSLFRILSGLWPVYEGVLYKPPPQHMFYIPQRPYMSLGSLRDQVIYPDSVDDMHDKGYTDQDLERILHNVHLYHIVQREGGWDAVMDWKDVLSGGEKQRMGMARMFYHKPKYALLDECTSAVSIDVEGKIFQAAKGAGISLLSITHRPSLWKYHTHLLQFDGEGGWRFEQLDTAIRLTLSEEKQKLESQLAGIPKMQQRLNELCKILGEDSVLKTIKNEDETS
In short: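 HEK-293 cells stably expressing HiBit-tagged human ABCD2 WT were treated with 11 doses (3-fold dilutions, top final 30 μM, 0.3% DMSO) for 24 h at 37 °C. Expression was measured by HiBit lytic luminescence after 1 h at 25 °C, giving EC50 and Emax.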

[2] = target: T2, ABCB4 WT (Homo sapiens, UniProt P21439); test: ABCB4 WT assay: HiBit protein expression; assay type: cell-based; conditions: HEK-293 cells stably expressing HiBit-tagged ABCB4 WT; 24 h treatment; top concentration 30 μM; read-out: ABCB4 WT EC50, Emax
T2 construct: expressed in transfected cells
T2 sequence (P21439 whole entry): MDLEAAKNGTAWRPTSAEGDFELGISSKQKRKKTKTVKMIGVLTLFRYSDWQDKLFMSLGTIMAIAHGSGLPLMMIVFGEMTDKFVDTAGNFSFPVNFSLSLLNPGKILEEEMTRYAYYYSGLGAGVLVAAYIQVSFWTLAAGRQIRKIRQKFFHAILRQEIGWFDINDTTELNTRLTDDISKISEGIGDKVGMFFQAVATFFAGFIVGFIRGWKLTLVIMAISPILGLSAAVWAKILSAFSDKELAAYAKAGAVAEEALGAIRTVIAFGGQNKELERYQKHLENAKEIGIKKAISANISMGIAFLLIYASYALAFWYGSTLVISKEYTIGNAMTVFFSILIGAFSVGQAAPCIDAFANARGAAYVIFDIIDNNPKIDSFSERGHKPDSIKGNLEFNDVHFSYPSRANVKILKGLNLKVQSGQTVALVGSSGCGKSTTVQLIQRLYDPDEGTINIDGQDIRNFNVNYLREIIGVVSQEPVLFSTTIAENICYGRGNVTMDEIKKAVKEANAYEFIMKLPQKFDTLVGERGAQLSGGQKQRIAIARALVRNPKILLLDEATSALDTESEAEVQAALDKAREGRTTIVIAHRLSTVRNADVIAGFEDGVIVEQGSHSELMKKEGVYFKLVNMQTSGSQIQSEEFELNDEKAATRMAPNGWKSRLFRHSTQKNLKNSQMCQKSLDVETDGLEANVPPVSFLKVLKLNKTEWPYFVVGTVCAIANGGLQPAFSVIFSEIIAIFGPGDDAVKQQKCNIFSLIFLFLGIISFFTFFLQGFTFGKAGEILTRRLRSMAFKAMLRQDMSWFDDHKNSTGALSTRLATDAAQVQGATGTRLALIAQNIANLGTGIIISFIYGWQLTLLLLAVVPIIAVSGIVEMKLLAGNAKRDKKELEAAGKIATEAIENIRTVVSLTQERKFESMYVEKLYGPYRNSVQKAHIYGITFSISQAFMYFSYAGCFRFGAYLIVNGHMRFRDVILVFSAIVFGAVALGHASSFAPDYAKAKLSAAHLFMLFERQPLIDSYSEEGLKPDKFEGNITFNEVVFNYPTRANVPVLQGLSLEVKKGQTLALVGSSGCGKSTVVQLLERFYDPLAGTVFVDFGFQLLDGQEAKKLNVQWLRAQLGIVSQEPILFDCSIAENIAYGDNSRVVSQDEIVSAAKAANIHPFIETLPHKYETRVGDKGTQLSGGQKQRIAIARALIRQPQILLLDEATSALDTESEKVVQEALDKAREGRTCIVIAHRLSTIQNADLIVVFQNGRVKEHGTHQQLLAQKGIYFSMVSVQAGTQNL
In short: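 HEK-293 cells stably expressing HiBit-tagged human ABCB4 WT, treated 24 h at 37 °C with 11-dose 3-fold dilutions, top final 30 μM in 0.3% DMSO. HiBit lytic reagent luminescence read after 1 h at 25 °C; Emax and EC50 derived.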

SMILES | EC50 [1] [µM] | EC50 [2] [µM]
Cc1cc(C)c(Oc2nc(-c3cncc(C#N)c3)cnc2NS(C)(=O)=O)c(C)n1 [Compound I-259] | 1 to 10 | ≥ 25
Cc1cc(C)c(Oc2nc(N3CCn4c(C)nnc4C3)ccc2NS(C)(=O)=O)c(C)c1 [Compound I-21] | > 25 | < 25
Cc1cc(C)c(Oc2nc(N3CC4(CCN(C(=O)C5CC5)C4)C3)ccc2NS(C)(=O)=O)c(C)c1 [Compound I-31] | > 25 | ≥ 25
Cc1cc(C(F)(F)F)nc(C)c1Oc1nc(-c2cncc(C#N)c2)ccc1NS(C)(=O)=O [Compound I-240] | < 1 | < 1
Cc1cc(C)c(Oc2nc(N3CCN(C(=O)C4CC4)CC3)ccc2NS(C)(=O)=O)c(C2CC2)n1 [Compound I-20] | 10 to 25 | ≥ 25
Cc1cc(C2CC2)nc(C)c1Oc1nc(-c2cncc(Cl)c2)ccc1NS(C)(=O)=O [Compound I-37] | < 1 | < 1
Cc1cc(C2CC2)nc(C)c1Oc1nc(-c2cncc(S(C)(=O)=O)c2)ccc1NS(C)(=O)=O [Compound I-263] | 1 to 10 | 1 to 10
Cc1cc(C)c(Oc2nc(-c3cncc(Cl)c3)ccc2NS(=O)(=O)C2COC2)c(C)c1 [Compound I-41] | < 1 | ≥ 25
Cc1cc(C)c(Oc2nc(N3CC4(CN(C(=O)C5CC5)C4)C3)ccc2NS(C)(=O)=O)c(C)c1 [Compound I-38] | > 25 | ≥ 25
Cc1cc(C)c(Oc2nc(N3CC4CC(C3)N4C(=O)C3CC3)ccc2NS(C)(=O)=O)c(C)c1 [Compound I-22] | 1 to 10 | 1 to 10
Cc1cc(C2CC2)nc(C)c1Oc1nc(N2CCN(C(=O)C3CC3)CC2)ccc1NS(C)(=O)=O [Compound I-28] | > 25 | 1 to 10
Cc1cc(C)c(Oc2nc(-c3cncc(C#N)c3)ccc2NS(C)(=O)=O)c(C)c1 [Compound I-39] | < 1 | < 1
Cc1cc(C)c(Oc2nc(N3CCn4c(cnc4C)C3)ccc2NS(C)(=O)=O)c(C)c1 [Compound I-30] | 1 to 10 | 1 to 10
Cc1cc(C)c(Oc2nc(N3C4CC3CN(C(=O)C3CC3)C4)ccc2NS(C)(=O)=O)c(C)c1 [Compound I-35] | > 25 | ≥ 25
Cc1cc(C)c(Oc2nc(N3CC4CC3CN4C(=O)C3CC3)ccc2NS(C)(=O)=O)c(C)c1 (single isomer, unassigned) [Compound I-18] | > 25 | ≥ 25
Cc1cc(C)c(Oc2nc(N3CC4CC3CN4C(=O)C3CC3)ccc2NS(C)(=O)=O)c(C)c1 (single isomer, unassigned) [Compound I-19] | > 25 | ≥ 25
CCCS(=O)(=O)Nc1ccc(-c2cncc(C#N)c2)nc1Oc1c(C)cc(C)nc1C [Compound I-242] | > 25 | 1 to 10
Cc1cc(C)c(Oc2nc(-c3cncc(C#N)c3)ccc2NS(=O)(=O)C2CCC2)c(C)n1 [Compound I-243] | 10 to 25 | < 1

Results, then the compound that gave them:

EC50 [1] [µM] | EC50 [2] [µM] | SMILES
1 to 10 | < 1 | Cc1cc(C)c(Oc2nc(-c3ccc(C#N)nc3C)ccc2NS(C)(=O)=O)c(C)n1 [Compound I-269]
< 1 | < 1 | CNS(=O)(=O)c1ccc(-c2cncc(C#N)c2)nc1Oc1c(C)cc(C)cc1C [Compound I-281]
> 25 | 1 to 10 | Cc1cc(C2CC2)cc(C)c1Oc1nc(-c2cncc(C#N)c2)ccc1NS(C)(=O)=O [Compound I-271]
> 25 | < 1 | Cc1cc(C)c(Oc2nc(-c3cncc(C#N)c3)ccc2NS(C)(=O)=O)c(C2CC2)n1 [Compound I-268]
> 25 | < 25 | Cc1cc(C(F)F)nc(C2CC2)c1Oc1nc(-c2cncc(C#N)c2)ccc1S(=O)(=O)NC1CCOCC1 [Compound I-320]
< 1 | ≥ 25 | Cc1cc(C)c(Oc2nc(-c3cncc(C#N)c3)cnc2NS(C)(=O)=O)c(C)c1 [Compound I-275]
10 to 25 | < 25 | Cc1cc(C)c(Oc2[nH]c(-c3cncc(C#N)c3)cc(=O)c2NS(C)(=O)=O)c(C)n1 [Compound I-325]
< 1 | < 1 | Cc1cc(C)c(Oc2nc(-c3cncc(C#N)c3)c(O)cc2NS(C)(=O)=O)c(C)n1 [Compound I-327]
1 to 10 | < 25 | Cc1cc(C)c(Oc2nc(-c3cc(C#N)cnc3C)ccc2NS(C)(=O)=O)c(C)n1 [Compound I-270]
1 to 10 | < 25 | Cc1cc(C)c(Oc2nc(-n3cc(C#N)cn3)ccc2NS(C)(=O)=O)c(C)c1 [Compound I-274]

From US20250228835A1, “PYRIDINYLOXYPYRIDINES AND RELATED COMPOUNDS AND THEIR USE IN TREATING MEDICAL CONDITIONS” (Rectify Pharmaceuticals, Inc., priority 2024, published 2025)
